# Assay results reported in patent publication US10550113B2, “2-phenyl-3H-imidazo[4,5-B]pyridine derivates useful as inhibitors of mammalian tyrosine kinase ROR1 activity” (Kancera AB, priority 2015, dated 2020).
# Legend:
# [1] = CellTiter-Blue cell viability assay, cell toxicity in PBMC from healthy volunteers; assay type: cell-based; settings: human, 50 000 cells/well, cultured 24, 48 and 72 h (time of the IC50 not stated), % cytotoxicity vs 0.2% DMSO
# Description: (§1) Method for Measurement of Cell Toxicity
# (§2) The CellTiter-Blue® Cell Viability Assay provides a homogeneous, fluorometric method for estimating the number of viable cells present in multi-well plates. The assay uses the indicator dye resazurin to measure the metabolic capacity of cells. Viable cells retain the ability to reduce resazurin into resorufin, which is highly fluorescent.
# (§3) Stock solutions (10 or 100 mM in DMSO) of compounds were serially diluted 1:2 in 11 concentrations and 25 nL/well (100 mM stock) or 50 nL/well (10 mM stock) were acoustically dispensed in assay plates with an EDC acoustic dispenser. Final starting concentration in the assay was 20 μM (0.2% DMSO) or 100 μM (0.1% DMSO) for test compounds.
# (§4) Peripheral blood mononuclear cells (PBMC) from CLL patients or healthy volunteers were seeded in assay plates (384-well black/clear, Greiner #781091) pre-dispensed with compounds, 25 μL/well, and cultured for 24, 48 and 72 h. The cell concentration was 50 000 cells/well for PBMC from CLL patients or healthy volunteers. After 24, 48 and 72 h culture, Celltiter Blue reagent was added (5 μL/well) and the plates were incubated for 2 h. The plates were read in an Envision fluorescence reader (PerkinElmer) with Ex544 nm/Em590 nm. Results were calculated as % cytotoxicity compared to background (cells treated with 0.2% DMSO).
# (§5) Thus, IC50 values for cell toxicity in PBMC from CLL patients as well as healthy volunteers for some compounds of the invention are shown in Table 3.
# PBMC from CLL patients = assay: CellTiter-Blue cell viability assay, cell toxicity in PBMC from CLL patients; assay type: cell-based; settings: Homo sapiens, 50 000 cells/well, cultured 24, 48 and 72 h (time of the IC50 not stated), % cytotoxicity vs 0.2% DMSO
# Description: as §1, §2, §3, §4, §5
Structure (SMILES),IC50 [1],IC50 (PBMC from CLL patients)
"CN(C)CCNC(=O)COc1ccc(-c2nc3c(N[C@H]4CCN(Cc5ccccc5)C4)c(Cl)cnc3[nH]2)cc1 [Example 2, 2-[4-(7-{[(3S)-1-benzylpyrrolidin-3-yl]amino}-6-chloro-3H-imidazo[4,5-b]pyridin-2-yl)phenoxy]-N-[2-(dimethylamino)ethyl]acetamide]",13.8 µM,1300 nM
"CN(C)CCNC(=O)COc1ccc(-c2nc3c(NC4CCN(CCc5ccccc5)CC4)c(Cl)cnc3[nH]2)cc1 [Example 3, 2-[4-(6-chloro-7-{[1-(2-phenylethyl)piperidin-4-yl]amino}-3H-imidazo[4,5-b]pyridin-2-yl)phenoxy]-N-[2-(dimethylamino)ethyl]acetamide]",9.9 µM,1200 nM
"CNC(=O)COc1ccc(-c2nc3c(NC4CCN(Cc5ccccc5)CC4)c(Cl)cnc3[nH]2)cc1 [Example 11, 2-(4-{7-[(1-benzylpiperidin-4-yl)amino]-6-chloro-3H-imidazo[4,5-b]pyridin-2-yl}phenoxy)-N-methylacetamide]",14.8 µM,440 nM
"CN(C)CCNC(=O)COc1ccc(-c2nc3c(NC4CCN(Cc5ccsc5)CC4)c(Cl)cnc3[nH]2)cc1 [Example 15, 2-[4-(6-chloro-7-{[1-(thiophen-3-ylmethyl)piperidin-4-yl]amino}-3H-imidazo[4,5-b]pyridin-2-yl)phenoxy]-N-[2-(dimethylamino)ethyl]acetamide]",13.9 µM,790 nM
"CNC(=O)COc1ccc(-c2nc3c(N(C)C4CCN(Cc5ccccc5)CC4)c(Cl)cnc3[nH]2)cc1 [Example 19, 2-(4-{7-[(1-benzylpiperidin-4-yl)(methyl)amino]-6-chloro-3H-imidazo[4,5-b]pyridin-2-yl}phenoxy)-N-methylacetamide]",> 20 µM,3230 nM
"Cc1ccc(CN2CCC(Nc3c(Cl)cnc4[nH]c(-c5ccc(OCC(=O)NCC(C)(C)N(C)C)cc5)nc34)CC2)cc1 [Example 27, 2-[4-(6-chloro-7-{[1-(4-methylbenzyl)piperidin-4-yl]amino}-3H-imidazo[4,5-b]pyridin-2-yl)phenoxy]-N-[2-(dimethylamino)-2-methylpropyl]acetamide]",14.1 µM,1420 nM
"CNC(=O)COc1ccc(-c2nc3c(N[C@H]4CCN(Cc5ccc(F)c(F)c5)C4)c(Cl)cnc3[nH]2)cc1 [Example 34, 2-[4-(6-chloro-7-{[(3S)-1-(3,4-difluorobenzyl)pyrrolidin-3-yl]amino}-3H-imidazo[4,5-b]pyridin-2-yl)phenoxy]-N-methylacetamide]",17.7 µM,3110 nM
"CNC(=O)COc1ccc(-c2nc3c(N[C@H]4CCN(Cc5ccc(OC)cc5)C4)c(Cl)cnc3[nH]2)cc1 [Example 43, 2-[4-(6-chloro-7-{[(3S)-1-(4-methoxybenzyl)pyrrolidin-3-yl]amino}-3H-imidazo[4,5-b]pyridin-2-yl)phenoxy]-N-methylacetamide]",> 20 µM,1740 nM
"CNC(=O)COc1ccc(-c2nc3c(NC4CCN(C5CCCCC5)CC4)c(Cl)cnc3[nH]2)cc1 [Example 56, 2-(4-{6-chloro-7-[(1-cyclohexylpiperidin-4-yl)amino]-3H-imidazo[4,5-b]pyridin-2-yl}phenoxy)-N-methylacetamide]",> 20 µM,370 nM
"CN(C)C(=O)COc1ccc(-c2nc3c(N[C@H]4CCN(Cc5ccccc5)C4)c(Cl)cnc3[nH]2)cc1 [Example 64, 2-[4-(7-{[(3S)-1-benzylpyrrolidin-3-yl]amino}-6-chloro-3H-imidazo[4,5-b]pyridin-2-yl)phenoxy]-N,N-dimethylacetamide]",13.9 µM,890 nM
"CNC(=O)COc1ccc(-c2nc3c(NC4CCN(Cc5ccncc5)CC4)c(Cl)cnc3[nH]2)cc1 [Example 71, 2-[4-(6-chloro-7-{[1-(pyridin-4-ylmethyl)piperidin-4-yl]amino}-3H-imidazo[4,5-b]pyridin-2-yl)phenoxy]-N-methylacetamide]",> 20 µM,1900 nM
